{
  "source": "patent US20240050440A1",
  "about": "“THERAPEUTIC TARGETS AND AGENTS FOR THE TREATMENT OF TRIOSEPHOSPHATE ISOMERASE (TPI) DEFICIENCY” (University of Pittsburgh- Of The Commonwealth System of …, priority 2020, published 2024)",
  "key": {"[1]": {"test_system": "TPI^E105D-GFP fusion protein", "assay": "HEK293 TPI^E105D-GFP high content assay (GFP intensity per cell)", "type": "cell-based, human", "details": "for hit call in LOPAC screen: 10 μM, 48 hour condition; for TPI^E105D-GFP fluorescence (in words): prescreen of putative protein stabilizing compounds, 48 hours; for repeat of hit activity in every condition: NIH Clinical Collection, 10 μM and 1 μM, 24 hours and 48 hours", "description": "HEK293 cells expressing a mutant (E105D) TPI-GFP fusion protein were created using the Flp-In System (Invitrogen, Catalog #K6010-01 and K6010-02) following the manufacturer's protocol. Briefly, a host cell line expressing the transfected Flp-In target site vector, pFRT/lacZeo, was obtained following zeocin resistance selection. TPI^E105D-GFP fusion construct was cloned into the pcDNA 5/FRT expression vector. Co-transfection of 0.1 μg of the pcDNA 5/FRT construct (390 ng/μL) and 0.9 μg of the Flp recombinase expression vector (pOG44, 127 ng/μL) into the Flp-In host cell line was performed with 3.75 μL Lipofectamine 2000 reagent (Invitrogen). A hygromycin dose response was performed to determine the minimum concentration of hygromycin B required to kill untransfected host cells. […] Expression of the TPI^E105D-GFP fusion protein was verified via Western blot. The cells were cultured using standard methods (37° C., 5% CO2) in normal media (DMEM with 10% serum, 100 U penicillin/100 μg streptomycin/ml (Lonza)). To document subcellular localization of mutant GFP-tagged TPI, nuclei were stained with Hoechst 33342 and imaged on an ImageXpress Ultra confocal high content reader in the UV and GFP channel, respectively. A z-series of images (60× objective, 90 planes, 0.3 μm z-steps) was acquired in both channels, and the color combined stack subjected to 3D reconstruction in MetaXpress. A single slice of the reconstructed image was chosen to illustrate the phenotype of mutant TPI-GFP expression.\nHEK293 TPI^E105D-GFP cells were plated (50,000 cells/well in collagen-coated 96-well thin-bottom microplates and allowed to attach overhight. Cells were treated with four point, two-fold gradients of 5× treatment solutions of test agents (6 replicates per condition). The final concentration of vehicle was 0.2%. After 48 hours in culture, cells were preincubated with propidium iodide (PI) for 30 minutes and imaged live in the GFP and Texas Red channels on an ImageXpress Ultra high content reader (Molecular Devices) using a 20× objective Images were analyzed with the multiwavelength cell scoring application using GFP to define and enumerate cells. The integrated GFP intensity per cell was used to quantify mutant TPI expression; the number of cells was used as a proxy for growth inhibition and/or cell loss; and the percentage of cells that exceeded a threshold for PI based on vehicle-treated controls was used to measure acute toxicity (necrosis).\nAssay ready daughter plates of the NIH Clinical Collection containing 2 μL of a 1 mM DMSO stock were reconstituted in DMEM (60 μL) to yield a 30 μM intermediate treatment concentration. 60 μl of DMSO (3%) was added to columns 1 and 24, and 60 μL of 600 nM luminespib was added to columns 2 and 23 to serve as negative and positive controls, respectively. Aliquots (15 μl) were transferred directly to cells in 384 well plates using an Agilent Bravo liquid handling robot (final concentration in assay, 10 μM). For the 1 μM condition, an aliquot of the 30 μM treatment solution was diluted 1:10 and controls added as above. Aliquots (15 μl) were transferred to cells to yield a […] final concentration. Plates were centrifuged for 30 seconds at 200×g and incubated at 37° C. After 24 hours, plates were imaged live in the GFP channel and returned to the incubator; after 48 hours cells were stained with PI, imaged live in the GFP and PI channels, and analyzed as described above. The LOPAC library was screened using the same procedure except that only the 10 μM, 48 hour condition was used.\nA pilot library screen was performed using the NIH Clinical Collection in the HEK TPI^E105D-GFP cell line. The NIH Clinical Collection maintained at the UPDDI contains 446 FDA approved drugs and small molecules that have a history of use in human clinical trials. The collections were assembled through the Molecular Libraries and Imaging Initiative as part of its mission to enable the use of compound screens in biomedical research. […]"}, "TPI": {"test_system": "TPI", "assay": "High-content analysis of TPI levels in patient fibroblasts by immunocytochemistry", "type": "cell-based, human", "details": "48 hours", "description": "(§1) FB303 cells were plated (1000/well) in a 384 well collagen-coated microplate. Cells were treated with vehicle (DMSO) or ten-point, two-fold gradients of test compounds for 48 hours in quadruplicates. Cells were fixed with 4% formaldehyde and immunostained with an anti-TPI antibody (Santa Cruz sc-30145) followed by a Cy3-conjugated goat anti-rabbit secondary (Jackson Immunoresearch). Nuclei were counterstained with Hoechst 33342 Images were acquired on an OPERA Phenix high-content imager (20× air objective, widefield, 4 fields/well) and analyzed for total cellular GFP intensity (HEK and U2OS) or total cellular Cy3 intensity (FB303) using Harmony 5.0 image analysis software (Perkin Elmer)."}, "[2]": {"test_system": "TPI^E105D-GFP fusion protein", "assay": "HEK293 TPI^E105D-GFP high content assay (GFP intensity per cell)", "type": "cell-based, human", "details": "fresh repurchased samples, ten-point twofold dose-response"}, "TPI^E105D-GFP": {"test_system": "TPI^E105D-GFP", "assay": "High-content analysis in U2OS TPI^E105D-GFP cells", "type": "cell-based, human", "details": "48 hours", "description": "U2OS osteosarcoma cells (ATCC HTB-96) engineered to express the mutant (E105D) TN-GFP protein were generated using the identical method described above for HEK cells and maintained in McCoy's 5A medium (ThermoFisher 16600082).\nas §1"}, "[3]": {"details": "Luo et al. 2015; said to correlate with concentrations needed to increase TPI^E105D-GFP in HEK cells; cited from earlier work"}, "TPI^sugarkill": {"test_system": "TPI^sugarkill", "assay": "Isolation and visualization of poly-ubiquitinated TPI from MG132-fed flies", "type": "in vivo, Drosophila melanogaster", "details": "flies fed 1 mg/mL MG132 for 24 hours at 25° C. or 29° C.; immunoprecipitation and Western blot", "description": "Conjugated anti-TPI resin was prepared with TPI antibody (FL249, Santa Cruz Biotechnology) and the Pierce co-immunoprecipitation kit. Homozygous TPI^sugarkill flies were fed 1 mg/mL MG132 (Sigma) on 10% sucrose for 24 hours at 25° C. or 29° C. Following incubation, flies were homogenized using a mechanical homogenizer in Pierce co-immunoprecipitation lysis buffer with Protease Inhibitor Mini-Tablets (Pierce), MG132 (0.1 mg/mL, Sigma) and NEM (1 μM, Sigma). Protein concentration was determined by BCA assay (Pierce). The lysates (2 mg) were incubated on a rotator overnight at 4° C. with 100 μl of the conjugated anti-TPI resin. The columns were washed three times with 200 μL of Pierce IP wash buffer with Protease Inhibitor Mini-Tablets (Pierce), MG132 (0.1 mg/mL) and 1 μM NEM. A bead only control provided by the Pierce IP kit served as a negative control. The samples were eluted into 2×SDS-PAGE sample buffer (130 mM Tris (pH 6.8), 4% SDS, 4% beta-mercaptoethanol, 20% glycerol, 0.1% bromophenol blue) with Protease Inhibitor Mini-Tablets (Pierce), MG132 (0.1 mg/mL, Sigma) and NEM (1 μM, Sigma). Western blots were conducted as described above with the exception that the blots were boiled in distilled water for 30 minutes prior to blocking. The antibody used for detection of ubiquitin was anti-ubiquitin (1:1000, 6C1 mouse Santa Cruz Biotechnology). […]"}},
  "note": "Where a SMILES comes first, the peptide text is derived from it. The star is where a group is joined. Cbz = O=C(OCc1ccccc1)*",
  "data": [
    {"smiles": "Oc1ccc(/C=C/c2cc(O)cc(O)c2)cc1", "note": "[resveratrol, 3,5,4′-trihydroxy-trans-stilbene]", "values": [
      {"measurement": "hit call in LOPAC screen", "setting": "[1]", "value": "positive hits"},
      {"measurement": "dose-response confirmation of activity, total anti-TPI fluorescence", "setting": "TPI", "value": "confirmed activity"},
      {"measurement": "concentration dependence of TPI^E105D-GFP increase", "setting": "[2]", "value": "concentration-dependent increases"},
      {"measurement": "dose-response confirmation of activity, total GFP levels per cell", "setting": "TPI^E105D-GFP", "value": "confirmed activity"}
    ]},
    {"smiles": "CC(C)C[C@H](NC(=O)[C@H](Cc1ccccc1)NC(=O)c1cnccn1)B(O)O", "note": "[bortezomib]", "values": [
      {"measurement": "TPI^E105D-GFP fluorescence (in words)", "setting": "[1]", "value": "significant increase"}
    ]},
    {"smiles": "C[C@@H]1C[C@@H]([C@H](O)CC2CC(=O)NC(=O)C2)C(=O)[C@@H](C)C1", "note": "[cycloheximide]", "values": [
      {"measurement": "TPI^E105D-GFP fluorescence (in words)", "setting": "[1]", "value": "significant increase"}
    ]},
    {"smiles": "COc1ccccc1OCCNCC(O)COc1cccc2[nH]c3ccccc3c12", "note": "(stereo not shown) [carvedilol]", "values": [
      {"measurement": "repeat of hit activity in every condition", "setting": "[1]", "value": "repeated in every condition"}
    ]},
    {"smiles": "O=C(O)C[C@H](O)C[C@H](O)/C=C/c1c(C2CC2)nc2ccccc2c1-c1ccc(F)cc1", "note": "[itavastatin]", "values": [
      {"measurement": "peak plasma levels in humans", "setting": "[3]", "value": 0.55, "unit": "µM"},
      {"measurement": "repeat of hit activity in every condition", "setting": "[1]", "value": "repeated in every condition"},
      {"measurement": "concentration dependence of TPI^E105D-GFP increase", "setting": "[2]", "value": "concentration-dependent increases"}
    ]},
    {"smiles": "CC(C)C[C@@H](C=O)NC(=O)[C@H](CC(C)C)NC(=O)[C@H](CC(C)C)NC(=O)OCc1ccccc1", "note": "[MG132] (Cbz-Leu-Leu-Leu-aldehyde)", "values": [
      {"measurement": "polyubiquitinated TPI^sugarkill signal", "setting": "TPI^sugarkill", "value": "accumulation of polyubiquitinated signal"}
    ]},
    {"smiles": "C[C@H]1[C@H](OC(=O)CCC(=O)O)O[C@@H]2O[C@@]3(C)CC[C@H]4[C@H](C)CC[C@@H]1[C@@]24OO3", "note": "[artesunate, 4-oxo-4-[[(1R,4S,5R,8S,9R,10S,12R,13R)-1,5,9-trimethyl-11,14,15,16-tetraoxatetracyclo[10.3.1.0^4,13.0^8,13]hexadecan-10-yl]oxy]butanoic acid]", "values": [
      {"measurement": "repeat of hit activity in every condition", "setting": "[1]", "value": "repeated in every condition"},
      {"measurement": "dose-response confirmation of activity, total anti-TPI fluorescence", "setting": "TPI", "value": "confirmed activity"},
      {"measurement": "dose-response confirmation of activity, total GFP levels per cell", "setting": "TPI^E105D-GFP", "value": "confirmed activity"}
    ]},
    {"smiles": "CC[C@H](C)C(=O)O[C@H]1CCC=C2C=C[C@H](C)[C@H](CC[C@@H]3C[C@@H](O)CC(=O)O3)[C@H]21", "note": "[mevastatin]", "values": [
      {"measurement": "hit call in LOPAC screen", "setting": "[1]", "value": "positive hits"}
    ]},
    {"smiles": "Cc1[nH]c(=O)c(C#N)cc1-c1ccncc1", "note": "[milrinone]", "values": [
      {"measurement": "repeat of hit activity in every condition", "setting": "[1]", "value": "repeated in every condition"}
    ]}
  ]
}
